Measured values: patent US12036315B2, “Pharmaceutical composition for oral administration comprising enzalutamide” (Astellas Pharma Inc., priority 2017, dated 2024)
Values after ≈ are worked out from the molar mass of the structure shown.

Assay: Solubility of enzalutamide in water
Type: physicochemical
Conditions: 20° C.±5° C.
Source text: The term “to improve solubility” as used herein means that the solubility, the dissolved concentration, or the dissolved rate of enzalutamide in a solvent is increased.
It is possible to obtain good solubility and/or good dissolution properties by applying the technology of the present invention. Further, it is possible to obtain good oral absorbability by applying the technology of the present invention.

SMILES: CNC(=O)c1ccc(N2C(=S)N(c3ccc(C#N)c(C(F)(F)F)c3)C(=O)C2(C)C)cc1F [Enzalutamide, 4-{3-[4-cyano-3-(trifluoromethyl)phenyl]-5,5-dimethyl-4-oxo-2-sulfanylideneimidazolidin-1-yl}-2-fluoro-N-methylbenzamide]
- solubility: 2 µg/mL (≈ 4.31 µM)
